Data published in patent US20200131129A1, “FARNESOID X RECEPTOR AGONISTS AND USES THEREOF” (Metacrine, Inc., priority 2017, published 2020).

Biological target: T1, hFXR (Homo sapiens, UniProt Q96RI1)
T1 construct: expressed in transfected cells; host or cells: CV-1 cells
T1 sequence (Q96RI1 1-486): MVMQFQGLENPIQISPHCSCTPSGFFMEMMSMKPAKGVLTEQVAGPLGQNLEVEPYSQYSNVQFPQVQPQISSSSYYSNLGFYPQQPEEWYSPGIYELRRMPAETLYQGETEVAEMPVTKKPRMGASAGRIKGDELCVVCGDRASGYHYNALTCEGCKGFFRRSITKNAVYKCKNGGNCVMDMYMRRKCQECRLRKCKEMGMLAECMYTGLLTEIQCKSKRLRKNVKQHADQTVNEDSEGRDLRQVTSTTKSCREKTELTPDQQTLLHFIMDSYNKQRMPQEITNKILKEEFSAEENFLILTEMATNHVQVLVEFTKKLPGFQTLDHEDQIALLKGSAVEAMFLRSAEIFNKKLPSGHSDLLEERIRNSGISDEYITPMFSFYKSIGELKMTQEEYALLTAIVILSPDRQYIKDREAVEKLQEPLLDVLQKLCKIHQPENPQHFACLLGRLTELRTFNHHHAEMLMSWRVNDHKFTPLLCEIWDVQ
T1 sequence (P19793 1-462 partner): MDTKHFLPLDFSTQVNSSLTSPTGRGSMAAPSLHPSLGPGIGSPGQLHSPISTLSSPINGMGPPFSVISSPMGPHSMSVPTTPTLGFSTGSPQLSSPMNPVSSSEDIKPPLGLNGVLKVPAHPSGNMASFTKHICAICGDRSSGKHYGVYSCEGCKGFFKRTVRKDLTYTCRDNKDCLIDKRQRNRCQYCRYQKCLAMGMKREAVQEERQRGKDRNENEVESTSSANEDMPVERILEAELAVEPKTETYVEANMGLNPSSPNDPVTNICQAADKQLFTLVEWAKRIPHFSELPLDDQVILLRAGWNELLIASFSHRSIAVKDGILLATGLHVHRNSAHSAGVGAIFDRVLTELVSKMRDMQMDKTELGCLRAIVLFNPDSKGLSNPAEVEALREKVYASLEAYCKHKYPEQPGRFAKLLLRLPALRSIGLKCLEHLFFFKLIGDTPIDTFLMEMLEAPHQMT
Assay: In Vitro FXR Assay (TK): hFXR/hRXR TK-ECRE-luc reporter in transfected CV-1 cells
Type: cell-based
Settings: CV-1 cells transfected with hFXR, hRXR, 18 hrs incubation, luminescence, maximum efficacy <25% of Fexarmine control also classified as ‘+’
Method: Example B-1: In Vitro FXR Assay (TK)
CV-1 cells were seeded at a density of 2,000,000 cells in a T175 flask with DMEM+10% charcoal double-stripped FBS and incubated at 37° C. in 5% CO2 for 18 h (O/N).
After 18 h of incubation, the medium in the T175 flask was changed with fresh DMEM+10% charcoal super-stripped serum. In a polypropylene tube, 2500 μL OptiMEM (Life Technologies, Cat #31985-062) was combined with expression plasmids for hFXR, hRXR, TK-ECRE-luc and pCMX-YFP. The tube was then briefly vortexed and incubated at room temperature for 5 minutes. Transfection reagent (X-tremeGENE HP from Roche, Cat #06 366 236 001) was added to the OptiMEM/plasmid mixture vortexed and incubated at room temperature for 20 minutes. Following incubation, the transfection reagent/DNA mixture complex was added to cells in the T175 flask and the cells were incubated at 37° C. in 5% CO2 for 18 h (0/N).
Compounds were serially diluted in DMSO and added to transfected CV-1 cells. The cells were then incubated for 18 hrs. The next day cells were lysed and examined for luminescence.

Row | Compound | EC50 [nM]
1 | COc1ccc([C@H]2CC[C@H](CN(c3cccc(-c4nc(C)ns4)c3)C(=O)[C@H]3CC[C@H](O)CC3)CC2)cc1C [Compound 2.08, trans-4-Hydroxy-N-((trans-4-(4-methoxy-3-methylphenyl)cyclohexyl)methyl)-N-(3-(3-methyl-1,2,4-thiadiazol-5-yl)phenyl)cyclohexanecarboxamide] | 500 to 1000
2 | COc1ccc([C@H]2CC[C@H](CN(c3cccc(-c4cnn(C)n4)c3)C(=O)[C@H]3CC[C@H](O)CC3)CC2)cc1C [Compound 2.09, trans-4-Hydroxy-N-((trans-4-(4-methoxy-3-methylphenyl)cyclohexyl)methyl)-N-(3-(2-methyl-2H-1,2,3-triazol-4-yl)phenyl)cyclohexanecarboxamide] | ≥ 1000
3 | COc1ccc([C@H]2CC[C@H](CN(c3cccc(-c4ncn(C)n4)c3)C(=O)[C@H]3CC[C@H](O)CC3)CC2)cc1C [Compound 2.10, trans-4-Hydroxy-N-((trans-4-(4-methoxy-3-methylphenyl)cyclohexyl)methyl)-N-(3-(1-methyl-1H-1,2,4-triazol-3-yl)phenyl)cyclohexanecarboxamide] | ≥ 1000
4 | COc1ccc([C@H]2CC[C@H](CN(c3cccc(-c4cn(C)cn4)c3)C(=O)[C@H]3CC[C@H](O)CC3)CC2)cc1C [Compound 2.11, trans-4-Hydroxy-N-((trans-4-(4-methoxy-3-methylphenyl)cyclohexyl)methyl)-i-(3-(1-methyl-1H-imidazol-4-yl)phenyl)cyclohexanecarboxamide] | ≥ 1000
5 | COc1ccc([C@H]2CC[C@H](CN(c3cccc(-c4nsc(C5CC5)n4)c3)C(=O)[C@H]3CC[C@H](O)CC3)CC2)cc1C [Compound 2.12, trans-N-(3-(5-Cyclopropyl-1,2,4-thiadiazol-3-yl)phenyl)-4-hydroxy-N-((trans-4-(4-methoxy-3-methylphenyl)cyclohexyl)methyl)cyclohexanecarboxamide] | 500 to 1000
6 | COc1ccc([C@H]2CC[C@H](CN(c3cccc(-c4cnc(N(C)C)cn4)c3)C(=O)[C@H]3CC[C@H](O)CC3)CC2)cc1C [Compound 2] | ≤ 500
7 | COc1ccc([C@H]2CC[C@H](CN(c3cccc(-c4cc(C)no4)c3)C(=O)[C@H]3CC[C@H](O)CC3)CC2)cc1C [Compound 3, trans-4-Hydroxy-N-((trans-4-(4-methoxy-3-methylphenyl)cyclohexyl)methyl)-N-(3-(3-methylisoxazol-5-yl)phenyl)cyclohexanecarboxamide] | ≤ 500
8 | COc1ccc([C@H]2CC[C@H](CN(c3cccc(-c4ncco4)c3)C(=O)[C@H]3CC[C@H](O)CC3)CC2)cc1C [Compound 3.01, trans-4-Hydroxy-N-((trans-4-(4-methoxy-3-methylphenyl)cyclohexyl)methyl)-N-(3-(oxazol-2-yl)phenyl)cyclohexanecarboxamide] | ≥ 1000
9 | COc1ccc([C@H]2CC[C@H](CN(c3cccc(-n4ccc(C)c4)c3)C(=O)[C@H]3CC[C@H](O)CC3)CC2)cc1C [Compound 4] | ≤ 500
10 | COc1ccc([C@H]2CC[C@H](CN(c3cccc(-c4nnn(C)n4)c3)C(=O)[C@H]3CC[C@H](O)CC3)CC2)cc1C [Compound 5, trans-4-Hydroxy-N-((trans-4-(4-methoxy-3-methylphenyl)cyclohexyl)methyl)-N-(3-(2-methyl-2H-tetrazol-5-yl)phenyl)cyclohexanecarboxamide] | ≥ 1000
11 | COc1ccc([C@H]2CC[C@H](CN(c3cccc(-c4nnc(C)o4)c3)C(=O)[C@H]3CC[C@H](O)CC3)CC2)cc1C [Compound 6, trans-4-Hydroxy-N-((trans-4-(4-methoxy-3-methylphenyl)cyclohexyl)methyl)-N-(3-(5-methyl-1,3,4-oxadiazol-2-yl)phenyl)cyclohexanecarboxamide] | ≥ 1000
12 | COc1ccc([C@H]2CC[C@H](CN(c3cccc(-n4cnc(C)n4)c3)C(=O)[C@H]3CC[C@H](O)CC3)CC2)cc1C [Compound 7, trans-4-Hydroxy-N-((trans-4-(4-methoxy-3-methylphenyl)cyclohexyl)methyl)-N-(3-(3-methyl-1-1,2,4-triazol-1-yl)phenyl)cyclohexanecarboxamide] | 500 to 1000
13 | COc1ccc([C@H]2CC[C@H](CN(c3cccc(-n4cnc(C5CC5)n4)c3)C(=O)[C@H]3CC[C@H](O)CC3)CC2)cc1C [Compound 7.01, trans-N-(3-(3-Cyclopropyl-1H-1,2,4-triazol-1-yl)phenyl)-4-hydroxy-N-((trans-4-(4-methoxy-3-methylphenyl)cyclohexyl)methyl)cyclohexanecarboxamide] | ≤ 500
14 | COc1ccc([C@H]2CC[C@H](CN(c3cccc(-c4cnc(C)o4)c3)C(=O)[C@H]3CC[C@H](O)CC3)CC2)cc1C [Compound 8, trans-4-Hydroxy-N-((trans-4-(4-methoxy-3-methylphenyl)cyclohexyl)methyl)-N-(3-(2-methyloxazol-5-yl)phenyl)cyclohexanecarboxamide] | ≤ 500
15 | COc1ccc([C@H]2CC[C@H](CN(c3cccc(-c4cc(C5CC5)ns4)c3)C(=O)[C@H]3CC[C@H](O)CC3)CC2)cc1C [Compound 9, trans-N-(3-(3-Cyclopropylisothiazol-5-yl)phenyl)-4-hydroxy-N-((trans-4-(4-methoxy-3-methylphenyl)cyclohexyl)methyl)cyclohexanecarboxamide] | ≤ 500
16 | COc1ccc([C@H]2CC[C@H](CN(c3cccc(-n4cnc(C)c4)c3)C(=O)[C@H]3CC[C@H](O)CC3)CC2)cc1C [Compound 9.01, trans-4-Hydroxy-N-((trans-4-(4-methoxy-3-methylphenyl)cyclohexyl)methyl)-N-(3-(4-methyl-1H-imidazol-1-yl)phenyl)cyclohexanecarboxamide] | 500 to 1000
17 | COc1ccc([C@H]2CC[C@H](CN(c3cccc(-c4nc(C)no4)c3)C(=O)[C@H]3CC[C@H](O)CC3)CC2)cc1C [Compound 9.02, trans-4-Hydroxy-N-((trans-4-(4-methoxy-3-methylphenyl)cyclohexyl)methyl)-N-(3-(3-methyl-1,2,4-oxadiazol-5-yl)phenyl)cyclohexanecarboxamide] | 500 to 1000
18 | COc1ccc([C@H]2CC[C@H](CN(c3cccc(-c4nc(C)co4)c3)C(=O)[C@H]3CC[C@H](O)CC3)CC2)cc1C [Compound 9.03, trans-4-Hydroxy-N-((trans-4-(4-methoxy-3-methylphenyl)cyclohexyl)methyl)-N-(3-(4-methyloxazol-2-yl)phenyl)cyclohexanecarboxamide] | ≥ 1000
19 | COc1ccc([C@H]2CC[C@H](CN(c3cccc(-c4coc(C)n4)c3)C(=O)[C@H]3CC[C@H](O)CC3)CC2)cc1C [Compound 9.04, trans-4-Hydroxy-N-((trans-4-(4-methoxy-3-methylphenyl)cyclohexyl)methyl)-N-(3-(2-methyloxazol-4-yl)phenyl)cyclohexanecarboxamide] | ≤ 500
20 | COc1ccc([C@H]2CC[C@H](CN(c3cccc(-n4nnc(C)n4)c3)C(=O)[C@H]3CC[C@H](O)CC3)CC2)cc1C [Compound 9.05, trans-4-Hydroxy-N-((trans-4-(4-methoxy-3-methylphenyl)cyclohexyl)methyl)-N-(3-(5-methyl-2H-tetrazol-2-yl)phenyl)cyclohexanecarboxamide] | 500 to 1000
21 | CCc1cc(-c2cccc(N(C[C@H]3CC[C@H](c4ccc(OC)c(C)c4)CC3)C(=O)[C@H]3CC[C@H](O)CC3)c2)ns1 [Compound 9.06, trans-N-(3-(5-Ethylisothiazol-3-yl)phenyl)-4-hydroxy-N-((trans-4-(4-methoxy-3-methylphenyl)cyclohexyl)methyl) cyclohexanecarboxamide] | ≤ 500
22 | COc1ccc([C@H]2CC[C@H](CN(c3cccc(-c4ncsn4)c3)C(=O)[C@H]3CC[C@H](O)CC3)CC2)cc1C [Compound 9.07, trans-N-(3-(1,2,4-Thiadiazol-3-yl)phenyl)-4-hydroxy-N-((trans-4-(4-methoxy-3-methylphenyl)cyclohexyl)methyl) cyclohexanecarboxamide] | 500 to 1000
